# Test results as given in the supplement of paper PMC10307832.
# Assays:
# Assay in all cases: relative viability (nuclei count vs DMSO), 5 days (fraction); higher = more cells survive
# NCI-H650 = test system: NCI-H650
# Method in brief: (§1)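 Lung cancer cell lines, seeded in 1536-well plates, were treated the following day by pin tool with a single drug or with five library-drug doses (not always all listed) in √10 steps on top of a fixed anchor-drug dose. Cells were fixed and nuclei stained in one step after 5 days, and nuclei were counted. Relative viability is the nuclei count for treated wells divided by that for vehicle wells, reported as medians of duplicate plates.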
# NCI-H2347 = test system: NCI-H2347
# Method in brief: as §1
# EMC-BAC-2 = test system: EMC-BAC-2
# Method in brief: as §1
# LOU-NH91 = test system: LOU-NH91
# Method in brief: as §1
# HCC-44 = test system: HCC-44
# Method in brief: as §1
# NCI-H23 = test system: NCI-H23
# Method in brief: as §1
# NCI-H727 = test system: NCI-H727
# Method in brief: as §1
# HARA = test system: HARA
# Method in brief: as §1
# NCI-H2087 = test system: NCI-H2087
# Method in brief: as §1
# NCI-H1993 = test system: NCI-H1993
# Method in brief: as §1
# NCI-H2126 = test system: NCI-H2126
# Method in brief: as §1
# NCI-H1395 = test system: NCI-H1395
# Method in brief: as §1
# NCI-H3122 = test system: NCI-H3122
# Method in brief: as §1
# NCI-H647 = test system: NCI-H647
# Method in brief: as §1
# 201T = test system: 201T
# Method in brief: as §1
# NCI-H441 = test system: NCI-H441
# Method in brief: as §1
# NCI-H596 = test system: NCI-H596
# Method in brief: as §1
# LCLC-103H = test system: LCLC-103H
# Method in brief: as §1
# BEN = test system: BEN
# Method in brief: as §1
# NCI-H522 = test system: NCI-H522
# Method in brief: as §1
# NCI-H838 = test system: NCI-H838
# Method in brief: as §1
# NCI-H2023 = test system: NCI-H2023
# Method in brief: as §1
smiles,measurement,setting,value
Nc1ccn([C@@H]2O[C@H](CO)[C@@H](O)[C@@H]2O)c(=O)n1 [Cytarabine] + CC(=O)Nc1cccc(-n2c(=O)n(C3CC3)c(=O)c3c(Nc4ccc(I)cc4F)n(C)c(=O)c(C)c32)c1 [Trametinib] (partner 0.02 µM),relative viability,NCI-H650; first compound 0.005 µM,0.793
same,relative viability,NCI-H650; first compound 0.01581 µM,0.694
same,relative viability,NCI-H650; first compound 0.05 µM,0.47
same,relative viability,NCI-H650; first compound 0.1581 µM,0.186
same,relative viability,NCI-H650; first compound 0.5 µM,0.196
same,relative viability,NCI-H2347; first compound 0.005 µM,0.277
same,relative viability,NCI-H2347; first compound 0.01581 µM,0.309
same,relative viability,NCI-H2347; first compound 0.05 µM,0.282
same,relative viability,NCI-H2347; first compound 0.1581 µM,0.236
same,relative viability,NCI-H2347; first compound 0.5 µM,0.257
same,relative viability,EMC-BAC-2; first compound 0.005 µM,0.972
same,relative viability,EMC-BAC-2; first compound 0.01581 µM,0.902
same,relative viability,EMC-BAC-2; first compound 0.05 µM,0.842
same,relative viability,EMC-BAC-2; first compound 0.1581 µM,0.497
same,relative viability,EMC-BAC-2; first compound 0.5 µM,0.427
same,relative viability,LOU-NH91; first compound 0.005 µM,0.758
same,relative viability,LOU-NH91; first compound 0.01581 µM,0.807
same,relative viability,LOU-NH91; first compound 0.05 µM,0.699
same,relative viability,LOU-NH91; first compound 0.1581 µM,0.657
same,relative viability,LOU-NH91; first compound 0.5 µM,0.644
same,relative viability,HCC-44; first compound 0.005 µM,1.08
same,relative viability,HCC-44; first compound 0.01581 µM,1.03
same,relative viability,HCC-44; first compound 0.05 µM,1.08
same,relative viability,HCC-44; first compound 0.1581 µM,1.04
same,relative viability,HCC-44; first compound 0.5 µM,1.01
same,relative viability,NCI-H23; first compound 0.005 µM,0.441
same,relative viability,NCI-H23; first compound 0.01581 µM,0.355
same,relative viability,NCI-H23; first compound 0.05 µM,0.223
same,relative viability,NCI-H23; first compound 0.1581 µM,0.165
same,relative viability,NCI-H23; first compound 0.5 µM,0.14
same,relative viability,NCI-H727; first compound 0.005 µM,0.348
same,relative viability,NCI-H727; first compound 0.01581 µM,0.374
same,relative viability,NCI-H727; first compound 0.05 µM,0.354
same,relative viability,NCI-H727; first compound 0.1581 µM,0.336
same,relative viability,NCI-H727; first compound 0.5 µM,0.329
same,relative viability,HARA; first compound 0.005 µM,1.03
same,relative viability,HARA; first compound 0.01581 µM,0.354
same,relative viability,HARA; first compound 0.05 µM,0.335
same,relative viability,HARA; first compound 0.1581 µM,0.204
same,relative viability,HARA; first compound 0.5 µM,0.231
same,relative viability,NCI-H2087; first compound 0.005 µM,0.187
same,relative viability,NCI-H2087; first compound 0.01581 µM,0.221
same,relative viability,NCI-H2087; first compound 0.05 µM,0.187
same,relative viability,NCI-H2087; first compound 0.1581 µM,0.139
same,relative viability,NCI-H2087; first compound 0.5 µM,0.126
same,relative viability,NCI-H1993; first compound 0.005 µM,0.425
same,relative viability,NCI-H1993; first compound 0.01581 µM,0.518
same,relative viability,NCI-H1993; first compound 0.05 µM,0.498
same,relative viability,NCI-H1993; first compound 0.1581 µM,0.437
same,relative viability,NCI-H1993; first compound 0.5 µM,0.432
same,relative viability,NCI-H2126; first compound 0.005 µM,0.575
same,relative viability,NCI-H2126; first compound 0.01581 µM,0.505
same,relative viability,NCI-H2126; first compound 0.05 µM,0.448
same,relative viability,NCI-H2126; first compound 0.1581 µM,0.349
same,relative viability,NCI-H2126; first compound 0.5 µM,0.357
same,relative viability,NCI-H1395; first compound 0.005 µM,1.06
same,relative viability,NCI-H1395; first compound 0.01581 µM,1.02
same,relative viability,NCI-H1395; first compound 0.05 µM,0.591
same,relative viability,NCI-H1395; first compound 0.1581 µM,0.524
same,relative viability,NCI-H1395; first compound 0.5 µM,0.436
same,relative viability,NCI-H3122; first compound 0.005 µM,0.221
same,relative viability,NCI-H3122; first compound 0.01581 µM,0.252
same,relative viability,NCI-H3122; first compound 0.05 µM,0.187
same,relative viability,NCI-H3122; first compound 0.1581 µM,0.177
same,relative viability,NCI-H3122; first compound 0.5 µM,0.139
same,relative viability,NCI-H647; first compound 0.005 µM,0.449
same,relative viability,NCI-H647; first compound 0.01581 µM,0.317
same,relative viability,NCI-H647; first compound 0.05 µM,0.22
same,relative viability,NCI-H647; first compound 0.1581 µM,0.0976
same,relative viability,NCI-H647; first compound 0.5 µM,0.0793
same,relative viability,201T; first compound 0.005 µM,0.728
same,relative viability,201T; first compound 0.01581 µM,0.724
same,relative viability,201T; first compound 0.05 µM,0.76
same,relative viability,201T; first compound 0.1581 µM,0.709
same,relative viability,201T; first compound 0.5 µM,0.694
same,relative viability,NCI-H441; first compound 0.005 µM,0.361
same,relative viability,NCI-H441; first compound 0.01581 µM,0.421
same,relative viability,NCI-H441; first compound 0.05 µM,0.451
same,relative viability,NCI-H441; first compound 0.1581 µM,0.242
same,relative viability,NCI-H441; first compound 0.5 µM,0.199
same,relative viability,NCI-H596; first compound 0.005 µM,0.812
same,relative viability,NCI-H596; first compound 0.01581 µM,0.759
same,relative viability,NCI-H596; first compound 0.05 µM,0.69
same,relative viability,NCI-H596; first compound 0.1581 µM,0.5
same,relative viability,NCI-H596; first compound 0.5 µM,0.499
same,relative viability,LCLC-103H; first compound 0.005 µM,0.692
same,relative viability,LCLC-103H; first compound 0.01581 µM,0.687
same,relative viability,LCLC-103H; first compound 0.05 µM,0.671
same,relative viability,LCLC-103H; first compound 0.1581 µM,0.682
same,relative viability,LCLC-103H; first compound 0.5 µM,0.742
same,relative viability,BEN; first compound 0.005 µM,1.08
same,relative viability,BEN; first compound 0.01581 µM,0.897
same,relative viability,BEN; first compound 0.05 µM,0.781
same,relative viability,BEN; first compound 0.1581 µM,0.553
same,relative viability,BEN; first compound 0.5 µM,0.372
same,relative viability,NCI-H522; first compound 0.005 µM,0.823
same,relative viability,NCI-H522; first compound 0.01581 µM,0.75
same,relative viability,NCI-H522; first compound 0.05 µM,0.65
same,relative viability,NCI-H522; first compound 0.1581 µM,0.589
same,relative viability,NCI-H522; first compound 0.5 µM,0.515
same,relative viability,NCI-H838; first compound 0.005 µM,0.724
same,relative viability,NCI-H838; first compound 0.01581 µM,0.535
same,relative viability,NCI-H838; first compound 0.05 µM,0.543
same,relative viability,NCI-H838; first compound 0.1581 µM,0.274
same,relative viability,NCI-H838; first compound 0.5 µM,0.246
same,relative viability,NCI-H2023; first compound 0.005 µM,0.463
same,relative viability,NCI-H2023; first compound 0.01581 µM,0.253
same,relative viability,NCI-H2023; first compound 0.05 µM,0.169
same,relative viability,NCI-H2023; first compound 0.1581 µM,0.104
same,relative viability,NCI-H2023; first compound 0.5 µM,0.0963
